In US8476273B2, “Small molecule inhibitors of Lck SH2 domain binding” (University of Maryland, Baltimore, priority 2007, dated 2013):
“Also recorded” adds a separate entry of the source.

Tests used:
[1] = target: T1, Lck SH2 domain (Homo sapiens, UniProt P06239); assay: solid phase EIA of Lck SH2 domain binding to CD3 ζ chain ITAM peptide; settings: screening concentration of 100 μM
T1 construct: GST
Source text: Compounds have been identified that inhibited Lck SH2 domain binding to the CD3 ζ chain ITAM peptide using a combination of CADD and biological assays using a solid phase EIA assay developed in our laboratory.
(§1) Lck kinase is a member of Src family kinases including Fyn, Lyn, and Hck that have SH2 domains sharing significant sequence homologies at βD5, βE4, EF1 and βG4 sites where these amino acids form the pY+3 binding pocket. Accordingly, it was important to test inhibition specificities of compounds against SH2 domains of these Src kinases and other signal transduction molecules involved in TCR proximal signaling. All 42 compounds identified in the above assay were subjected to specificity screening using a solid phase EIA assay using 7 different GST-SH2 domains (Lck, Fyn, Lyn, Hck, Src, She and Grb2).
(§2) All the compounds that had >40% inhibitory effect in the cellular assays were tested in the solid phase specificity screening assay and three compounds, 72, 87 and 241 were identified to be specific to Lck. Due to the fact that these compounds were specific to Lck SH2 domain, in vitro and in vivo assays described below were conducted using these 3 compounds.

[2] = system: GST-SH2 domains (Fyn, Lyn, Hck, Src, She and Grb2); assay: solid phase EIA specificity screening with other GST-SH2 domains; type: binding; settings: screening concentration of 100 μM
Source text: as §1, §2

[3] = system: Mtb-induced adjuvant arthritis; assay: Mtb-induced adjuvant arthritis (AA) in Lewis rats; type: in vivo, Lewis rat
Protocol: FIG. 4A is a line graph showing the effect of SMILS in a preventive treatment regimen. […] Mtb was injected on day 0. ▭—Untreated group, ◯—SMILS treated group.
FIG. 4B is a line graph showing the effect of SMILS in therapeutic-1 treatment regimen. […] Mtb was injected on day 0. ⋄—Untreated group, ◯—SMILS treated group (3 mg/kg body weight), ●—SMILS (1 mg/kg body weight) treatment group.
FIG. 4C is a line graph showing the effects of SMILS in therapeutic-2 treatment regimen. […] Mtb was injected on day 0. ⋄—Untreated group, ●—SMILS (3 mg/kg body weight) treatment group.
Pilot experiments using Lewis rats were carried out to assess the effect of SMILS on Mtb-induced AA. The initial experiments described here were carried out using compound 241. Experiments were carried out to test the efficacy of SMILS (3 mg/kg body weight injected i.p.) in three treatment regimens: i.e., preventive: (SMILS injected at −3, −2, −1, 0 days before Mtb injection); therapeutic 1: at the time of AA induction (SMILS injected at 0, 1, 2, 3, 4 days after Mtb injection); and therapeutic 2: at the time of clinical symptom appearance (SMILS injected at 10, 11, 12, 13 days after Mtb injection).
In addition to the visual scoring of the joint swelling, histological examinations of joints from all 4 paws collected at the peak of the disease were carried out.

T1 sequence (P06239 127-224 limits assumed): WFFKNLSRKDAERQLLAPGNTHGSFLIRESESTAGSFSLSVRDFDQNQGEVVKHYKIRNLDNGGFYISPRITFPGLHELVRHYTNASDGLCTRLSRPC

Structure (SMILES)	specificity towards Lck SH2 domain [1]	inhibitory activity against the other SH2 domains [2]	joint swelling in Mtb-induced AA, therapeutic 1 regimen ([3]; 3 mg/kg i.p. on days 0, 1, 2, 3, 4 after Mtb, Lewis rats)	joint swelling in Mtb-induced AA, therapeutic 2 regimen ([3]; 3 mg/kg i.p. on days 10, 11, 12, 13 after Mtb, Lewis rats)	joint swelling in Mtb-induced AA, preventive regimen ([3]; 3 mg/kg i.p. on days -3, -2, -1, 0, Lewis rats)	histological examination of joints ([3]; paws collected at the peak of the disease, AA rats)
O=C(O)COc1ccccc1/C=N/NC(=O)c1cc(Cl)ccc1O [Compound 72]	showed specificities towards Lck SH2 domain	little or no inhibitory activity	–	–	–	–
O=C(NCCSc1ccccc1)c1cncc(Br)c1 [Compound 241]	showed specificities towards Lck SH2 domain	little or no inhibitory activity	significantly reduced the joint swellings in all rats	significantly reduced the joint swellings in all rats	delayed the onset of joint swelling and reduced the severity of joint swellings	absence of damage to the cartilage and inflammatory cells; also recorded: No infiltration of inflammatory cells is observed in the joint space
